Experimental data taken from the supplement of paper PMC8967900.

Assays:
Assay in all cases: selective drug sensitivity score (sDSS, relative to normal bone marrow) (sDSS (score)); higher = more potent and effective on the cell line relative to normal bone marrow cells
Settings in all cases: 72 h
[1] = system: RCH-ACV
[2] = system: LC4-1
[3] = system: COG-LL-402h
[4] = system: KASUMI-2
[5] = system: CCRF-HSB2
[6] = system: ALL-PO
[7] = system: HPB-ALL
[8] = system: COG-LL-394h
[9] = system: REH
[10] = system: PF-382
[11] = system: TANOUE
[12] = system: SUP-B15
[13] = system: ALL-SIL
[14] = system: MOLT-16
[15] = system: MOLT-4
[16] = system: MHH-CALL-2
[17] = system: 380
[18] = system: TMD5
[19] = system: COG-LL-317
[20] = system: SEM cells
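Further: ALL cell lines in 384-well plates, five doses spanning 10,000-fold, each plate scaled between vehicle and 100 µmol/L benzalkonium chloride controls, sDSS an adapted area-under-curve metric.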

SMILES | selective drug sensitivity score [1] | selective drug sensitivity score [2] | selective drug sensitivity score [3] | selective drug sensitivity score [4] | selective drug sensitivity score [5] | selective drug sensitivity score [6] | selective drug sensitivity score [7] | selective drug sensitivity score [8] | selective drug sensitivity score [9] | selective drug sensitivity score [10] | selective drug sensitivity score [11] | selective drug sensitivity score [12] | selective drug sensitivity score [13] | selective drug sensitivity score [14] | selective drug sensitivity score [15] | selective drug sensitivity score [16] | selective drug sensitivity score [17] | selective drug sensitivity score [18] | selective drug sensitivity score [19] | selective drug sensitivity score [20]
CC[C@H](C)C(=O)O[C@H]1C[C@H](O)C=C2C=C[C@H](C)[C@H](CC[C@@H](O)C[C@@H](O)CC(=O)O)[C@H]21 [Pravastatin] (top concentration 10000 nM) | -0.56 | 3.04 | -0.46 | -0.66 | -0.66 | -0.66 | -0.66 | -0.66 | -0.66 | -0.66 | -0.66 | 0.04 | -0.66 | -0.66 | -0.66 | -0.36 | 3.04 | -0.66 | 0.94 | -0.66
Oc1ccc2c(c1)CC[C@H](c1ccccc1)[C@@H]2c1ccc(OCCN2CCCC2)cc1 [Lasofoxifene] (top concentration 1000 nM) | -1.28 | -1.28 | -0.18 | -1.28 | -1.28 | -1.28 | 7.52 | -1.28 | -1.28 | -0.98 | -1.08 | -1.28 | -1.28 | 1.12 | -1.28 | -1.28 | -1.28 | -1.28 | -1.28 | -1.28
O=C1CN2Cc3c(ccc(Cl)c3Cl)N=C2N1 [Anagrelide] (top concentration 10000 nM) | 0 | 0 | 0 | 0 | 0 | 1 | 0 | 0 | 0 | 0 | 0 | 0 | 2.8 | 0 | 0 | 1.5 | 0.1 | 0 | 0 | 0
CC1=C2C[C@H]3[C@@H](CC[C@@H]4C[C@H](NS(C)(=O)=O)CC[C@@]43C)[C@@H]2CC[C@@]2(C1)O[C@@H]1C[C@H](C)CN[C@H]1[C@H]2C [Saridegib] (top concentration 10000 nM) | 6.64 | 0.54 | 0.94 | 5.04 | 0.24 | 1.74 | 0.34 | 5.34 | -1.16 | 0.34 | -1.16 | 0.64 | -1.16 | -0.26 | -0.86 | 3.14 | -0.96 | 1.74 | -1.16 | -1.16
CCN(CC)CCN(Cc1ccc(-c2ccc(C(F)(F)F)cc2)cc1)C(=O)Cn1c(SCc2ccc(F)cc2)nc(=O)c2c1CCC2 [Darapladib] (top concentration 1000 nM) | 7.28 | -1.42 | -1.42 | 0.98 | -0.52 | -1.42 | -1.42 | -1.42 | -1.42 | -1.22 | -1.42 | -1.42 | -1.42 | 3.28 | -1.42 | 3.68 | -1.42 | 6.98 | -1.42 | -1.42
COc1cc2ncnc(Nc3ccc(F)c(Cl)c3)c2cc1NC(=O)/C=C/CN1CCCCC1 [Dacomitinib] (top concentration 1000 nM) | 0.16 | -0.94 | 0.96 | -1.64 | 3.76 | 3.06 | -1.54 | -1.64 | -1.04 | -0.94 | -1.64 | -1.34 | -1.04 | -1.04 | -1.54 | 2.06 | -1.64 | 1.46 | -0.44 | 0.86
CC(C)C(=O)Nc1ccc([N+](=O)[O-])c(C(F)(F)F)c1 [Flutamide] (top concentration 10000 nM) | 0.14 | -0.46 | -0.56 | 0.34 | -0.46 | -0.56 | -0.56 | -0.26 | -0.56 | 0.14 | 0.04 | -0.56 | -0.26 | 0.34 | -0.46 | 9.74 | -0.56 | 6.64 | -0.56 | 2.44
CC#CC(=O)N1CCC[C@H]1c1nc(-c2ccc(C(=O)Nc3ccccn3)cc2)c2c(N)nccn12 [Acalabrutinib] (top concentration 1000 nM) | 1.8 | -0.1 | -0.1 | -0.1 | -0.1 | -0.1 | -0.1 | -0.1 | -0.1 | 0 | -0.1 | 3.7 | -0.1 | -0.1 | -0.1 | 9 | 9.6 | 5.9 | -0.1 | 3.2
Cn1nnc2c(C(N)=O)ncn2c1=O [Temozolomide] (top concentration 100000 nM) | 6.66 | -0.04 | -0.04 | -0.04 | 2.06 | -0.04 | -0.04 | -0.04 | 6.66 | 3.16 | -0.04 | -0.04 | 4.66 | 5.16 | 1.86 | 3.36 | 5.66 | -0.04 | -0.04 | 6.46
COc1cc2c(Oc3ccc4[nH]c(C)cc4c3F)ncnc2cc1OCCCN1CCCC1 [Cediranib] (top concentration 1000 nM) | 0 | 0 | 0 | 0 | 3.4 | 0 | 0 | 0 | 0 | 0 | 0 | 0 | 0 | 0 | 0.1 | 7.2 | 0 | 3.6 | 0.1 | 0.2
N#Cc1ccnc(N2C(=O)CC[C@H]2C(=O)N(c2cncc(F)c2)[C@H](C(=O)NC2CC(F)(F)C2)c2ccccc2Cl)c1 [Ivosidenib] (top concentration 10000 nM) | 0 | 0 | 0 | 0.6 | 1.6 | 0 | 0 | 0 | 0.6 | 0.8 | 0 | 0 | 2 | 1 | 0.2 | 11.9 | 3 | 1.8 | 1.8 | 0
Cc1cc(-c2ncc(CC(=O)Nc3ccc(-c4cnccn4)cn3)cc2C)ccn1 [NVP-LGK974] (top concentration 10000 nM) | 5.6 | 1.2 | -0.1 | 1 | 0.5 | 3.4 | -0.6 | 6.2 | 4 | 2.7 | 5.7 | 3.9 | 0 | 4.9 | 3.9 | 1.9 | 1 | 3.4 | -1.2 | 2.2
Cc1c(Cn2c(C)nc3c(C(=O)O)cc(N4CCOCC4)cc32)cccc1C(F)(F)F (top concentration 10000 nM) | 5.18 | -0.02 | 3.68 | -0.02 | -0.02 | 0.08 | -0.02 | -0.02 | 0.68 | -0.02 | -0.02 | 0.38 | -0.02 | -0.02 | -0.02 | 0.58 | -0.02 | -0.02 | 2.28 | 0.58
Cc1ccc(F)c(NC(=O)Nc2ccc(-c3cccc4[nH]nc(N)c34)cc2)c1 [Linifanib] (top concentration 1000 nM) | -1.12 | -1.12 | -1.12 | -1.12 | -1.12 | -1.12 | -1.12 | -1.12 | -1.12 | -1.12 | -1.12 | -1.12 | -1.12 | -1.12 | -1.12 | -1.12 | -1.12 | -1.12 | -1.12 | 1.28
C=CC(=O)N1CCC(Oc2cc3c(Nc4ccc(Cl)c(Cl)c4F)ncnc3cc2OC)CC1 [Poziotinib] (top concentration 1000 nM) | 4.98 | 0.78 | 1.58 | 5.98 | 3.68 | -0.22 | -0.12 | -0.22 | -0.22 | -0.22 | -0.22 | 2.98 | 3.48 | -0.22 | -0.22 | -0.22 | -0.22 | 1.28 | 2.68 | 3.88
CCOCc1nc2c(N)nc3ccccc3c2n1CC(C)(C)O [Resiquimod] (top concentration 10000 nM) | -4.92 | -4.12 | -4.32 | -4.92 | -4.92 | -4.92 | -4.92 | -4.42 | -4.92 | -4.72 | -3.02 | -1.22 | -4.92 | -3.22 | -4.92 | -4.92 | -4.62 | -4.92 | -4.02 | -4.92
CNC(=O)c1cccc2cc(Oc3ccnc4cc(OCC5(N)CC5)c(OC)cc34)ccc12 [Lucitanib] (top concentration 10000 nM) | 6.38 | 1.68 | 3.58 | 3.48 | 3.88 | 2.08 | 3.18 | 1.58 | 6.88 | 1.38 | 0.28 | 3.48 | 4.88 | 3.98 | 4.18 | 4.18 | 1.18 | 0.98 | 2.78 | 4.98
COc1cc(Br)c(Nc2nc(-c3c(C)nc4ncccn34)cs2)c(Br)c1 [PTC-209] (top concentration 10000 nM) | 7.12 | 0.12 | -0.78 | -2.68 | 0.72 | -0.98 | 6.92 | -2.58 | 3.62 | -0.68 | -2.58 | -0.18 | 0.42 | 0.72 | -0.48 | 1.92 | -1.48 | -2.18 | 0.42 | 2.42
